From patent publication US8633315B2, “Substituted hydroxyethyl amine compounds as beta-secretase modulators and methods of use” (Amgen Inc., priority 2007, dated 2014)
Like-named read-outs stand apart in the source and are kept apart here.

Tests used:
[1] = Microsomal stability assay, rat liver microsomes; assay type: in vitro ADME
Description: (§1) Microsomal Stability Assay

BACE1 = BACE1 (Homo sapiens, UniProt P56817); assay: In vitro enzymatic BACE FRET (fluorescence resonance energy transfer) assay; assay type: biochemical
How it was run: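 Fluorescence (ex 488 nm, […]) was read after Tris addition raised pH to neutral, ending a one-hour incubation. Reaction started with 50 nM fluorophore/quencher peptide substrate in pH 4.2 acetate (0.05 M) containing 100 uM genapol and 10% DMSO final.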

[2] = system: Cells stably expressing Amyloid Precursor Protein (APP); assay: In vitro BACE cell-based assay (HEK cell assay): Aβ40 in conditioned medium by sandwich ELISA; details: Homo sapiens
How it was run: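 Secreted Aβ40 was quantified by time-resolved fluorescence sandwich ELISA, capturing with pAb40 for 3 h at 4 °C and detecting with biotinylated 6E10 for 2 h at 4 °C. Media came from APP-expressing cells exposed 24 h to compounds (10-point series from 100 or 10 μM, 0.1% DMSO); IC50 derived from percent of control.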

[3] = Microsomal stability assay, human liver microsomes; assay type: in vitro ADME
Description: as §1

CYP3A4 (CYP3A) = CYP3A4 (CYP3A) (Homo sapiens, UniProt P08684); assay: CYP3A inhibition assay (midazolam, pooled human liver microsomes); assay type: in vitro ADME; details: human, pooled human liver microsomes, pH 7.4, probe midazolam (printed as about […]); read-out: 3A4 IC50
[4] = HEK293, 24 h, Aβ40 in conditioned medium after 24 h incubation

Sequence of CYP3A4 (CYP3A) (P08684 2-503): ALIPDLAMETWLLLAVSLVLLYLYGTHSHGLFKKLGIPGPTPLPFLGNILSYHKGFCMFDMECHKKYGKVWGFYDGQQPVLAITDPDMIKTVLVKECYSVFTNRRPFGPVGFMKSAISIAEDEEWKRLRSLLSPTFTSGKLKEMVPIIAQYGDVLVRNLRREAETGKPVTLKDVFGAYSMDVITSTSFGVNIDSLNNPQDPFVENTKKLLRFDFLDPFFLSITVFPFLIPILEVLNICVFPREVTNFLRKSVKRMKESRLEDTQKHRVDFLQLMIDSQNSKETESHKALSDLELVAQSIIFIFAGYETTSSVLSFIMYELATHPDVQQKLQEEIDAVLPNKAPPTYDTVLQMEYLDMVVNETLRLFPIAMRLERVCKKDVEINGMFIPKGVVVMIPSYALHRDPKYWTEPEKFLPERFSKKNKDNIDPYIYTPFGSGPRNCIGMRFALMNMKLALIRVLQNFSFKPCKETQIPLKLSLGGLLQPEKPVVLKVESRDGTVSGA
Sequence of BACE1 (P56817 46-501, species assumed): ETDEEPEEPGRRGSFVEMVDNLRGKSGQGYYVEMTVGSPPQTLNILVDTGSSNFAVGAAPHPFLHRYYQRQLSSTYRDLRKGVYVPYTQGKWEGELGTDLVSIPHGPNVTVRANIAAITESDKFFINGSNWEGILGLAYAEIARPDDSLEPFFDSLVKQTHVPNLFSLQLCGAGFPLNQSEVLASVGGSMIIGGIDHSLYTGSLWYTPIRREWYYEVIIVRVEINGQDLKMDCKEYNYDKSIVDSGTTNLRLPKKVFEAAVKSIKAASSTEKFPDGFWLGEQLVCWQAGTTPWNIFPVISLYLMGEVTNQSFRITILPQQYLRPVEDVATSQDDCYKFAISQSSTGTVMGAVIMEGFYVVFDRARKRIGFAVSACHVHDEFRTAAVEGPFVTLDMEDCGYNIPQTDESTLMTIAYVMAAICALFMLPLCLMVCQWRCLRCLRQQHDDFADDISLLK

| SMILES | RLM [1] | IC50 (BACE1; read-out: BACE 1 FRET assay) | IC50 ([2]; HEK293) | HLM [3] | IC50 at 10 min (CYP3A4 (CYP3A)) | IC50 (BACE1) | IC50 [2, 4] |
| --- | --- | --- | --- | --- | --- | --- | --- |
| C=CC[C@H](NC(=O)COC)[C@H](O)CN[C@H]1CC2(CCC2)Oc2c1cc(CC(C)(C)C)nc2-c1cncn1C [compound 238, N-((1S)-1-((1R)-2-(((4′S)-6′-(2,2-dimethylpropyl)-8′-(1-methyl-1H-imidazol-5-yl)-3′,4′-dihydrospiro[cyclobutane-1,2′-pyrano[2,3-c]pyridin]-4′-yl)amino)-1-hydroxyethyl)-3-buten-1-yl)-2-methoxyacetamide] | 68 µL/min/mg | 946 nM | 149 nM | 58 µL/min/mg | 160 nM | – | – |
| C=CC[C@H](NC(=O)COC)[C@H](O)CN[C@H]1CC2(CCC2)Oc2c1cc(CC(C)(C)C)nc2Nc1ccc2c(c1)OCO2 [compound 233, N-((1S)-1-((1R)-2-(((4′S)-8′-(1,3-benzodioxol-5-ylamino)-6′-(2,2-dimethylpropyl)-3′,4′-dihydrospiro[cyclobutane-1,2′-pyrano[2,3-c]pyridin]-4′-yl)amino)-1-hydroxyethyl)-3-buten-1-yl)-2-methoxyacetamide] | 197 µL/min/mg | 16 nM | 388 nM | 151 µL/min/mg | 1300 nM | – | – |
| C=CC[C@H](NC(=O)COC)[C@H](O)CN[C@H]1CC2(CCC2)Oc2c1cc(CC(C)(C)C)nc2Nc1cccnc1 [compound 240] | 152 µL/min/mg | 268 nM | 345 nM | 551 µL/min/mg | 500 nM | – | – |
| C=CC[C@H](NC(=O)c1cccc(F)c1F)[C@H](O)CN[C@H]1CC2(CCC2)Oc2ncc(CC(C)(C)C)cc21 [Example 69, N-((1S)-1-((1R)-2-(((4′S)-6′-(2,2-dimethylpropyl)-3′,4′-dihydrospiro[cyclobutane-1,2′-pyrano[2,3-b]pyridin]-4′-yl)amino)-1-hydroxyethyl)-3-buten-1-yl)-2,3-difluorobenzamide] | – | – | – | – | – | 155 nM | 121 nM |
| C=CC[C@H](NC(=O)[C@H](F)c1ccccc1)[C@H](O)CN[C@H]1CC2(CCC2)Oc2ncc(CC(C)(C)C)cc21 [Example 143, (2R)-N-((1S)-1-((1R)-2-(((4′S)-6′-(2,2-dimethylpropyl)-3′,4′-dihydrospiro[cyclobutane-1,2′-pyrano[2,3-b]pyridin]-4′-yl)amino)-1-hydroxyethyl)-3-buten-1-yl)-2-fluoro-2-phenylethanamide] | – | – | – | – | – | 2890 nM | 539 nM |
| C=CC[C@H](NC(=O)c1ccccc1)[C@H](O)CN[C@H]1CC2(CCC2)Oc2ncc(CC(C)(C)C)cc21 [Example 59, N-((1S)-1-((1R)-2-(((4′S)-6′-(2,2-dimethylpropyl)-3′,4′-dihydrospiro[cyclobutane-1,2′-pyrano[2,3-b]pyridin]-4′-yl)amino)-1-hydroxyethyl)-3-buten-1-yl)benzamide] | – | – | – | – | – | 125 nM | 349 nM |
| C=CC[C@H](NC(=O)[C@H](CC)OC)[C@H](O)CN[C@H]1CC2(CCC2)Oc2ncc(CC(C)(C)C)cc21 [Example 147, (2S)-N-((1S)-1-((1R)-2-(((4′S)-6′-(2,2-dimethylpropyl)-3′,4′-dihydrospiro[cyclobutane-1,2′-pyrano[2,3-b]pyridin]-4′-yl)amino)-1-hydroxyethyl)-3-buten-1-yl)-2-(methyloxy)butanamide] | – | – | – | – | – | 95 nM | 420 nM |
| C=CC[C@H](NC(C)=O)[C@H](O)CN[C@H]1C[C@]2(CC[C@@H]2O)Oc2ncc(CC(C)(C)C)cc21 [Example 51, N-((1S)-1-((1R)-2-(((1S,2S,4′S)-6′-(2,2-dimethylpropyl)-2-hydroxy-3′,4′-dihydrospiro[cyclobutane-1,2′-pyrano[2,3-b]pyridin]-4′-yl)amino)-1-hydroxyethyl)-3-buten-1-yl)acetamide] | – | – | – | – | – | 63 nM | 212 nM |
| C=CC[C@H](NC(=O)c1cccc2c1OCO2)[C@H](O)CN[C@H]1CC2(CCC2)Oc2ncc(CC(C)(C)C)cc21 [Example 103, N-((1S)-1-((1R)-2-(((4′S)-6′-(2,2-dimethylpropyl)-3′,4′-dihydrospiro[cyclobutane-1,2′-pyrano[2,3-b]pyridin]-4′-yl)amino)-1-hydroxyethyl)-3-buten-1-yl)-1,3-benzodioxole-4-carboxamide] | – | – | – | – | – | 216 nM | 2540 nM |
| C=CC[C@H](NC(=O)c1cncn1C)[C@H](O)CN[C@H]1CC2(CCC2)Oc2ncc(CC(C)(C)C)cc21 [Example 131, N-((1S)-1-((1R)-2-(((4′S)-6′-(2,2-dimethylpropyl)-3′,4′-dihydrospiro[cyclobutane-1,2′-pyrano[2,3-b]pyridin]-4′-yl)amino)-1-hydroxyethyl)-3-buten-1-yl)-1-methyl-1H-imidazole-5-carboxamide] | – | – | – | – | – | 372 nM | 65 nM |
| C=CC[C@H](NC(=O)c1ccc(F)c(F)c1)[C@H](O)CN[C@H]1CC2(CCC2)Oc2ncc(CC(C)(C)C)cc21 [Example 60, N-((1S)-1-((1R)-2-(((4′S)-6′-(2,2-dimethylpropyl)-3′,4′-dihydrospiro[cyclobutane-1,2′-pyrano[2,3-b]pyridin]-4′-yl)amino)-1-hydroxyethyl)-3-buten-1-yl)-3,4-difluorobenzamide] | – | – | – | – | – | 87 nM | 361 nM |
| C=CC[C@H](NC(=O)c1cc(F)cc(F)c1F)[C@H](O)CN[C@H]1CC2(CCC2)Oc2ncc(CC(C)(C)C)cc21 [Example 74, N-((1S)-1-((1R)-2-(((4′S)-6′-(2,2-dimethylpropyl)-3′,4′-dihydrospiro[cyclobutane-1,2′-pyrano[2,3-b]pyridin]-4′-yl)amino)-1-hydroxyethyl)-3-buten-1-yl)-2,3,5-trifluorobenzamide] | – | – | – | – | – | 305 nM | 1620 nM |
| C=CC[C@H](NC(=O)c1cc(F)c(F)c(F)c1)[C@H](O)CN[C@H]1CC2(CCC2)Oc2ncc(CC(C)(C)C)cc21 [Example 79, N-((1S)-1-((1R)-2-(((4′S)-6′-(2,2-dimethylpropyl)-3′,4′-dihydrospiro[cyclobutane-1,2′-pyrano[2,3-b]pyridin]-4′-yl)amino)-1-hydroxyethyl)-3-buten-1-yl)-3,4,5-trifluorobenzamide] | – | – | – | – | – | 465 nM | 1970 nM |
| C=CC[C@H](NC(=O)c1ccn(C)n1)[C@H](O)CN[C@H]1CC2(CCC2)Oc2ncc(CC(C)(C)C)cc21 [Example 132, N-((1S)-1-((1R)-2-(((4′S)-6′-(2,2-dimethylpropyl)-3′,4′-dihydrospiro[cyclobutane-1,2′-pyrano[2,3-b]pyridin]-4′-yl)amino)-1-hydroxyethyl)-3-buten-1-yl)-1-methyl-1H-pyrazole-3-carboxamide] | – | – | – | – | – | 302 nM | 418 nM |
| C=CC[C@H](NC(=O)[C@@H](F)c1ccccc1)[C@H](O)CN[C@H]1CC2(CCC2)Oc2ncc(CC(C)(C)C)cc21 [Example 142, (2S)-N-((1S)-1-((1R)-2-(((4′S)-6′-(2,2-dimethylpropyl)-3′,4′-dihydrospiro[cyclobutane-1,2′-pyrano[2,3-b]pyridin]-4′-yl)amino)-1-hydroxyethyl)-3-buten-1-yl)-2-fluoro-2-phenylethanamide] | – | – | – | – | – | 33 nM | 1560 nM |
| C=CC[C@H](NC(=O)COC(C)C)[C@H](O)CN[C@H]1CC2(CCC2)Oc2ncc(CC(C)(C)C)cc21 [Example 145, N-((1S)-1-((1R)-2-(((4′S)-6′-(2,2-dimethylpropyl)-3′,4′-dihydrospiro[cyclobutane-1,2′-pyrano[2,3-b]pyridin]-4′-yl)amino)-1-hydroxyethyl)-3-buten-1-yl)-2-((1-methylethyl)oxy)acetamide] | – | – | – | – | – | 77 nM | 301 nM |
| C=CC[C@H](NC(C)=O)[C@H](O)CN[C@H]1CC2(CCC2)Oc2ncc(CC(C)C)cc21 [Example 38, N-((1S)-1-((1R)-1-hydroxy-2-(((4′S)-6′-(2-methylpropyl)-3′,4′-dihydrospiro[cyclobutane-1,2′-pyrano[2,3-b]pyridin]-4′-yl)amino)ethyl)-3-buten-1-yl)acetamide] | – | – | – | – | – | 81 nM | 85 nM |
| C=CC[C@H](NC(=O)[C@@H]1CC1(F)F)[C@H](O)CN[C@H]1CC2(CCC2)Oc2ncc(CC(C)(C)C)cc21 [Example 140, (1S)-N-((1S)-1-((1R)-2-(((4′S)-6′-(2,2-dimethylpropyl)-3′,4′-dihydrospiro[cyclobutane-1,2′-pyrano[2,3-b]pyridin]-4′-yl)amino)-1-hydroxyethyl)-3-buten-1-yl)-2,2-difluorocyclopropanecarboxamide] | – | – | – | – | – | 382 nM | 331 nM |
| C=CC[C@H](NC(=O)[C@H](F)C(F)(F)F)[C@H](O)CN[C@H]1CC2(CCC2)Oc2ncc(CC(C)(C)C)cc21 [Example 138, (2S)-N-((1S)-1-((1R)-2-(((4′S)-6′-(2,2-dimethylpropyl)-3′,4′-dihydrospiro[cyclobutane-1,2′-pyrano[2,3-b]pyridin]-4′-yl)amino)-1-hydroxyethyl)-3-buten-1-yl)-2,3,3,3-tetrafluoropropanamide] | – | – | – | – | – | 115 nM | 194 nM |
| C=CC[C@H](NC(=O)c1cc(F)cc(F)c1)[C@H](O)CN[C@H]1CC2(CCC2)Oc2ncc(CC(C)(C)C)cc21 [Example 61, N-((1S)-1-((1R)-2-(((4′S)-6′-(2,2-dimethylpropyl)-3′,4′-dihydrospiro[cyclobutane-1,2′-pyrano[2,3-b]pyridin]-4′-yl)amino)-1-hydroxyethyl)-3-buten-1-yl)-3,5-difluorobenzamide] | – | – | – | – | – | 5 nM | 29.1 nM |
